In patent US7514452B2, “2-furancarboxylic acid hydrazides and pharmaceutical compositions containing the same” (Dainippon Pharmaceutical Co., Ltd, priority 2002, dated 2009):

Assays:
glucagon receptor [1] = target: glucagon receptor (Mus musculus, UniProt Q61606); test: Experiment for glucagon binding inhibition, mouse hepatic membrane (125I-glucagon); details: male ddY mouse hepatic membrane, 125I-glucagon 50 pM, 25° C. for 30 minutes; read-out: Glucagon binding inhibitory activity IC50 (nM) Mouse
glucagon receptor (Mus musculus, UniProt Q61606), sequence (Q61606 27-485): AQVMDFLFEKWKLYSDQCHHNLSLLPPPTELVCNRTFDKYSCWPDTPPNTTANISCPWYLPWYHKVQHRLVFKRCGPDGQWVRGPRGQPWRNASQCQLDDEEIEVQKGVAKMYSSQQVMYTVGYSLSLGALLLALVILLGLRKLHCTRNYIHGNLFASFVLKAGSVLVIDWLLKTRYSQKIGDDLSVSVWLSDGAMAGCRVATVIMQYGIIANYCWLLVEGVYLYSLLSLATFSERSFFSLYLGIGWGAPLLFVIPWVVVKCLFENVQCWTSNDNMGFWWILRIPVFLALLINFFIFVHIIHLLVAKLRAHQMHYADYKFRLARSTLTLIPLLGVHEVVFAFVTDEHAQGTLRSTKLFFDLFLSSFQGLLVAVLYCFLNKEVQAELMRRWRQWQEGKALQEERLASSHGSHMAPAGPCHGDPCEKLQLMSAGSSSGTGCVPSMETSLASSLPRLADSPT
Procedure: (§1) The preparation of membrane from mouse and rat livers was carried out according to the method described in Bioorg. Med. Chem. Lett. 1992, 12, 915-918 in this experiment and ^125I-glucagon binding activity was measured with these membranes as glucagon receptor's samples. Livers were removed from male SD rats (about 250 g body weight per rat) and male ddY mice (about 30 g body weight per mouse). […] The homogenate was centrifuged for 15 minutes at 30,000×g. […] The precipitaion thus obtained was used as a hepatic membrane sample. […] The mixture was incubated at 25° C. for 30 minutes. […] The filter was washed 3 times with 50 mM Tris-HCl buffer (pH 7.2), and the radioactivity of the filter was measured by a γ counter (ARC-360, Aloka Co., Ltd.). […] Each experiment was carried out in duplicate. […] The concentration at 50% inhibition of binding (IC50) was calculated using a pseudo Hill plot.

glucagon receptor [2] = target: glucagon receptor (Rattus norvegicus, UniProt P30082); test: Experiment for glucagon binding inhibition, rat hepatic membrane (125I-glucagon); details: male SD rat hepatic membrane, 125I-glucagon 50 pM, 25° C. for 30 minutes; read-out: Glucagon binding inhibitory activity IC50 (nM) Rat
glucagon receptor (Rattus norvegicus, UniProt P30082), sequence (P30082 27-485): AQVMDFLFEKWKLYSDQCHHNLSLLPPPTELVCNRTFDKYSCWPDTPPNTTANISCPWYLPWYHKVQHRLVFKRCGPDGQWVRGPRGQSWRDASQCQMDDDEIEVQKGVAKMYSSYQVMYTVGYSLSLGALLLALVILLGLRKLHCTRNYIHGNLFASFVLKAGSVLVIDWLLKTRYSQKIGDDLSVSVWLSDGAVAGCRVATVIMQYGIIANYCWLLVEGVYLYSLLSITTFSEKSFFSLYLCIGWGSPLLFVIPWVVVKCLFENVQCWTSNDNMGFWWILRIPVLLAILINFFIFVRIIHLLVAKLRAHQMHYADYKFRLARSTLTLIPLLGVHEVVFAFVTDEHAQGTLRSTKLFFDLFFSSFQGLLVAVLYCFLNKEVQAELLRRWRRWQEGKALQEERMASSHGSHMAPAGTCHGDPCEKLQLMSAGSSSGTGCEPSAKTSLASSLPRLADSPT
Procedure: as §1

An IC50 (glucagon receptor [1]) of 99 nM and an IC50 (glucagon receptor [2]) of 21 nM were found for Cc1cc(C)c(C)c(COc2cccc(-c3ccoc3C(=O)NNC(=O)c3ccc(O)c(C#N)c3)c2)c1C [Example 1, 3-[3-(2,3,5,6-tetramethylbenzyloxy)phenyl]-2-furancarboxylic acid 2-(3-cyano-4-hydroxybenzoyl)hydrazide] in this work.
An IC50 (glucagon receptor [1]) of 140 nM and an IC50 (glucagon receptor [2]) of 330 nM were found for N#Cc1cc(C(=O)NNC(=O)c2occc2-c2cccc(Oc3ccccc3)c2)ccc1O [Example 2, 3-(3-phenoxyphenyl)-2-furancarboxylic acid 2-(3-cyano-4-hydroxybenzoyl)hydrazide] in this work.
An IC50 (glucagon receptor [1]) of 52 nM and an IC50 (glucagon receptor [2]) of 30 nM were found for N#Cc1cc(C(=O)NNC(=O)c2occc2-c2cccc(OCc3ccccc3)c2)ccc1O [Example 3, 3-(3-benzyloxyphenyl)-2-furancarboxylic acid 2-(3-cyano-4-hydroxybenzoyl)hydrazide] in this work.
An IC50 (glucagon receptor [1]) of 130 nM and an IC50 (glucagon receptor [2]) of 28 nM were found for N#Cc1cc(C(=O)NNC(=O)c2occc2-c2cccc(OCCc3ccccc3)c2)ccc1O [Example 4, 3-(3-phenethyloxyphenyl)-2-furancarboxylic acid 2-(3-cyano-4-hydroxybenzoyl)hydrazide] in this work.
An IC50 (glucagon receptor [1]) of 130 nM and an IC50 (glucagon receptor [2]) of 200 nM were found for N#Cc1cc(C(=O)NNC(=O)c2occc2-c2ccccc2OCc2ccccc2)ccc1O [Example 5, 3-(2-benzyloxyphenyl)-2-furancarboxylic acid 2-(3-cyano-4-hydroxybenzoyl)hydrazide] in this work.
An IC50 (glucagon receptor [1]) of 310 nM and an IC50 (glucagon receptor [2]) of 170 nM were found for N#Cc1cc(C(=O)NNC(=O)c2occc2-c2ccccc2Cc2ccccc2)ccc1O [Example 8, 3-(2-benzylphenyl)-2-furancarboxylic acid 2-(3-cyano-4-hydroxybenzoyl)hydrazide] in this work.
An IC50 (glucagon receptor [1]) of 75 nM and an IC50 (glucagon receptor [2]) of 210 nM were found for Cc1cc(C)c(C)c(COc2ccccc2-c2ccoc2C(=O)NNC(=O)c2ccc(O)c(C#N)c2)c1C [Example 9, 3-[2-(2,3,5,6-tetramethylbenzyloxy)phenyl]-2-furancarboxylic acid 2-(3-cyano-4-hydroxybenzoyl)hydrazide] in this work.
An IC50 (glucagon receptor [1]) of 230 nM and an IC50 (glucagon receptor [2]) of 180 nM were found for CC(C)Oc1ccccc1-c1ccoc1C(=O)NNC(=O)c1ccc(O)c(C#N)c1 [Example 10, 3-(2-isopropoxyphenyl)-2-furancarboxylic acid 2-(3-cyano-4-hydroxybenzoyl)hydrazide] in this work.
An IC50 (glucagon receptor [1]) of 450 nM and an IC50 (glucagon receptor [2]) of 140 nM were found for CCCOc1ccccc1-c1ccoc1C(=O)NNC(=O)c1ccc(O)c(C#N)c1 [Example 11, 3-(2-propoxyphenyl)-2-furancarboxylic acid 2-(3-cyano-4-hydroxybenzoyl)hydrazide] in this work.
An IC50 (glucagon receptor [1]) of 170 nM and an IC50 (glucagon receptor [2]) of 85 nM were found for N#Cc1cc(C(=O)NNC(=O)c2occc2-c2ccccc2OCCc2ccccc2)ccc1O [Example 12, 3-(2-phenethyloxyphenyl)-2-furancarboxylic acid 2-(3-cyano-4-hydroxybenzoyl)hydrazide] in this work.
An IC50 (glucagon receptor [1]) of 180 nM and an IC50 (glucagon receptor [2]) of 190 nM were found for N#Cc1cc(C(=O)NNC(=O)c2occc2-c2ccccc2Oc2ccccc2)ccc1O [Example 13, 3-(2-phenoxyphenyl)-2-furancarboxylic acid 2-(3-cyano-4-hydroxybenzoyl)hydrazide] in this work.
An IC50 (glucagon receptor [1]) of 170 nM and an IC50 (glucagon receptor [2]) of 27 nM were found for Cc1cc(C)c(C)c(COc2ccc(-c3ccoc3C(=O)NNC(=O)c3ccc(O)c(C#N)c3)cc2)c1C [Example 15, 3-[4-(2,3,5,6-tetramethylbenzyloxy)phenyl]-2-furancarboxylic acid 2-(3-cyano-4-hydroxybenzoyl)hydrazide] in this work.
An IC50 (glucagon receptor [1]) of 180 nM and an IC50 (glucagon receptor [2]) of 87 nM were found for N#Cc1cc(C(=O)NNC(=O)c2occc2-c2ccc(Oc3ccccc3)cc2)ccc1O [Example 16, 3-(4-phenoxyphenyl)-2-furancarboxylic acid 2-(3-cyano-4-hydroxybenzoyl)hydrazide] in this work.
An IC50 (glucagon receptor [1]) of 160 nM and an IC50 (glucagon receptor [2]) of 99 nM were found for N#Cc1cc(C(=O)NNC(=O)c2occc2-c2ccc(OCc3ccccc3)cc2)ccc1O [Example 17, 3-(4-benzyloxyphenyl)-2-furancarboxylic acid 2-(3-cyano-4-hydroxybenzoyl)hydrazide] in this work.
An IC50 (glucagon receptor [1]) of 120 nM and an IC50 (glucagon receptor [2]) of 41 nM were found for N#Cc1cc(C(=O)NNC(=O)c2occ(-c3ccccc3)c2-c2ccccc2)ccc1O [Example 18, 3,4-diphenyl-2-furancarboxylic acid 2-(3-cyano-4-hydroxybenzoyl)hydrazide] in this work.
An IC50 (glucagon receptor [1]) of 97 nM and an IC50 (glucagon receptor [2]) of 86 nM were found for O=C(NNC(=O)c1occ(-c2ccccc2)c1-c1ccccc1)c1ccc(O)c([N+](=O)[O-])c1 [Example 19, 3,4-diphenyl-2-furancarboxylic acid 2-(4-hydroxy-3-nitrobenzoyl)hydrazide] in this work.
An IC50 (glucagon receptor [1]) of 24 nM and an IC50 (glucagon receptor [2]) of 9.2 nM were found for Cc1cc(C)c(C)c(COc2cccc(-c3ccoc3C(=O)NNC(=O)c3ccc(O)c([N+](=O)[O-])c3)c2)c1C [Example 20, 3-[3-(2,3,5,6-tetramethylbenzyloxy)phenyl]-2-furancarboxylic acid 2-(4-hydroxy-3-nitrobenzoyl)hydrazide] in this work.
An IC50 (glucagon receptor [1]) of 390 nM and an IC50 (glucagon receptor [2]) of 160 nM were found for O=C(NNC(=O)c1occ(-c2ccccc2)c1-c1ccccc1)c1ccc(O)c(C(F)(F)F)c1 [Example 43, 3,4-diphenyl-2-furancarboxylic acid 2-(4-hydroxy-3-trifluoromethylbenzoyl)hydrazide] in this work.
An IC50 (glucagon receptor [1]) of 240 nM and an IC50 (glucagon receptor [2]) of 75 nM were found for N#Cc1cc(C(=O)NNC(=O)c2occ(COC(=O)Nc3ccccc3)c2-c2ccccc2)ccc1O [Example 53, 4-(phenylaminocarbonyloxymethyl)-3-phenyl-2-furancarboxylic acid 2-(3-cyano-4-hydroxybenzoyl)hydrazide] in this work.
An IC50 (glucagon receptor [1]) of 380 nM and an IC50 (glucagon receptor [2]) of 150 nM were found for N#Cc1cc(C(=O)NNC(=O)c2occ(COC(=O)NCCc3ccccc3)c2-c2ccccc2)ccc1O [Example 54, 4-(Phenethylaminocarbonyloxymethyl)-3-phenyl-2-furancarboxylic acid 2-(3-cyano-4-hydroxybenzoyl)hydrazide] in this work.
An IC50 (glucagon receptor [1]) of 220 nM and an IC50 (glucagon receptor [2]) of 150 nM were found for N#Cc1cc(C(=O)NNC(=O)c2occ(COCc3ccccc3)c2-c2ccccc2)ccc1O [Example 56, 4-Benzyloxymethyl-3-phenyl-2-furancarboxylic acid 2-(3-cyano-4-hydroxybenzoyl)hydrazide] in this work.
An IC50 (glucagon receptor [1]) of 84 nM and an IC50 (glucagon receptor [2]) of 35 nM were found for N#Cc1cc(C(=O)NNC(=O)c2occ(C=CCCc3ccccc3)c2-c2ccccc2)ccc1O [Example 59, 3-Phenyl-4-(4-phenyl-1-butenyl)-2-furancarboxylic acid 2-(3-cyano-4-hydroxybenzoyl)hydrazide] in this work.
An IC50 (glucagon receptor [1]) of 160 nM and an IC50 (glucagon receptor [2]) of 120 nM were found for N#Cc1cc(C(=O)NNC(=O)c2occc2-c2cccs2)ccc1O [Example 60, 3-(2-thienyl)-2-furancarboxylic acid 2-(3-cyano-4-hydroxybenzoyl)hydrazide] in this work.
An IC50 (glucagon receptor [1]) of 200 nM and an IC50 (glucagon receptor [2]) of 58 nM were found for N#Cc1cc(C(=O)NNC(=O)c2occc2-c2ccccc2)ccc1O [Example 61, 3-phenyl-2-furancarboxylic acid 2-(3-cyano-4-hydroxybenzoyl)hydrazide] in this work.
An IC50 (glucagon receptor [1]) of 4 nM and an IC50 (glucagon receptor [2]) of 1.5 nM were found for Cc1cc(C)c(C)c(COc2cccc(-c3c(-c4ccccc4)coc3C(=O)NNC(=O)c3ccc(O)c(C#N)c3)c2)c1C [Example 98, 4-phenyl-3-[3-(2,3,5,6-tetramethylbenzyloxy)phenyl]-2-furancarboxylic acid 2-(3-cyano-4-hydroxybenzoyl)hydrazide] in this work.
An IC50 (glucagon receptor [1]) of 13 nM and an IC50 (glucagon receptor [2]) of 3.4 nM were found for Cc1cc(C)c(C)c(COc2cccc(-c3coc(C(=O)NNC(=O)c4ccc(O)c(C#N)c4)c3-c3ccccc3)c2)c1C [Example 99, 3-phenyl-4-[3-(2,3,5,6-tetramethylbenzyloxy)phenyl]-2-furancarboxylic acid 2-(3-cyano-4-hydroxybenzoyl)hydrazide] in this work.
An IC50 (glucagon receptor [1]) of 9.1 nM and an IC50 (glucagon receptor [2]) of 5.8 nM were found for Cc1cc(C)c(C)c(COc2cccc(-c3c(-c4ccccc4)coc3C(=O)NNC(=O)c3ccc(O)c([N+](=O)[O-])c3)c2)c1C [Example 100, 4-phenyl-3-[3-(2,3,5,6-tetramethylbenzyloxy)phenyl]-2-furancarboxylic acid 2-(4-hydroxy-3-nitrobenzoyl)hydrazide] in this work.
An IC50 (glucagon receptor [1]) of 28 nM and an IC50 (glucagon receptor [2]) of 33 nM were found for O=C(NNC(=O)c1occc1-c1cccc(OCc2ccccc2)c1)c1ccc(O)c([N+](=O)[O-])c1 [Example 101, 3-(3-benzyloxyphenyl)-2-furancarboxylic acid 2-(4-hydroxy-3-nitrobenzoyl)hydrazide] in this work.
An IC50 (glucagon receptor [1]) of 93 nM and an IC50 (glucagon receptor [2]) of 95 nM were found for N#Cc1cc(C(=O)NNC(=O)c2occc2-c2cccc(OCc3ccncc3)c2)ccc1O [Example 102, 3-[3-(4-pyridylmethyloxy)phenyl]-2-furancarboxylic acid 2-(3-cyano-4-hydroxybenzoyl)hydrazide] in this work.
An IC50 (glucagon receptor [1]) of 310 nM and an IC50 (glucagon receptor [2]) of 110 nM were found for N#Cc1cc(C(=O)NNC(=O)c2occc2-c2cccc(OCC(O)c3ccccc3)c2)ccc1O (centres unmarked) [Example 108, 3-[3-(2-Hydroxy-2-phenylethoxy)phenyl]-2-furancarboxylic acid 2-(3-cyano-4-hydroxybenzoyl)hydrazide] in this work.
An IC50 (glucagon receptor [1]) of 80 nM and an IC50 (glucagon receptor [2]) of 54 nM were found for N#Cc1cc(C(=O)NNC(=O)c2occ(-c3cccc(OCc4ccccc4)c3)c2-c2cccc(OCc3ccccc3)c2)ccc1O [Example 115, 3,4-bis(3-benzyloxyphenyl)-2-furancarboxylic acid 2-(3-cyano-4-hydroxybenzoyl)hydrazide] in this work.
